Laboratory results taken from EPA's ToxValDB 9.5.

System: Rattus norvegicus
Details: short-term, duration: 28 days, oral, gavage, Sprague-Dawley

O=S(=O)([O-])C(F)(F)C(F)(F)C(F)(F)C(F)(F)C(F)(F)C(F)(F)F.[K+] [Potassium perfluorohexanesulfonate]
NOEL (F, Clinical chemistry_Alanine aminotransferase): 50 mg/kg-day
NOEL (F, Clinical chemistry_Albumin): 50 mg/kg-day
NOEL (F, Clinical chemistry_Albumin/globulin ratio): 50 mg/kg-day
NOEL (F, Clinical chemistry_Alkaline phosphatase): 50 mg/kg-day
NOEL (F, Clinical chemistry_Aspartate aminotransferase): 50 mg/kg-day
NOEL (F, Clinical chemistry_Cholesterol): 50 mg/kg-day
NOEL (F, Clinical chemistry_Direct bilirubin): 50 mg/kg-day
LOEL (F, Clinical chemistry_Free thyroxine): 12.5 mg/kg-day
NOEL (F, Clinical chemistry_Globulin): 50 mg/kg-day
NOEL (F, Clinical chemistry_Sorbitol dehydrogenase): 50 mg/kg-day
NOEL (F, Clinical chemistry_Testosterone): 50 mg/kg-day
NOEL (F, Clinical chemistry_Thyroid stimulating hormone): 50 mg/kg-day
NOEL (F, Clinical chemistry_Total bile acids): 50 mg/kg-day
NOEL (F, Clinical chemistry_Total bilirubin): 50 mg/kg-day
NOEL (F, Clinical chemistry_Total protein): 50 mg/kg-day
LOEL (F, Clinical chemistry_Total thyroxine): 6.25 mg/kg-day
NOEL (F, Clinical chemistry_Total triiodothyronine): 50 mg/kg-day
NOEL (F, Clinical chemistry_Triglycerides): 50 mg/kg-day
NOEL (F, Gene expression_Acox1): 50 mg/kg-day
LOEL (F, Gene expression_Cyp2b1): 3.12 mg/kg-day
LOEL (F, Gene expression_Cyp2b2): 3.12 mg/kg-day
NOEL (F, Gene expression_Cyp4a1): 50 mg/kg-day
NOEL (F, Hematology_Erythrocytes): 50 mg/kg-day
NOEL (F, Hematology_Hematocrit): 50 mg/kg-day
NOEL (F, Hematology_Hemoglobin): 50 mg/kg-day
NOEL (F, Hematology_Leukocytes): 50 mg/kg-day
NOEL (F, Hematology_Reticulocytes): 50 mg/kg-day
NOEL (F, Hematology_S. neutrophils): 50 mg/kg-day
NOEL (F, Nonneoplastic effects_Bone marrow - Hypocellularity): 50 mg/kg-day
NOEL (F, Nonneoplastic effects_Kidney - Papilla, necrosis): 50 mg/kg-day
NOEL (F, Nonneoplastic effects_Liver - Hepatocyte, cytoplasmic alteration): 50 mg/kg-day
NOEL (F, Nonneoplastic effects_Liver - Hepatocyte, hypertrophy): 50 mg/kg-day
NOEL (F, Nonneoplastic effects_Liver - Hepatocyte, vacuolization cytoplasmic): 50 mg/kg-day
NOEL (F, Nonneoplastic effects_Liver - Necrosis): 50 mg/kg-day
LOEL (F, Nonneoplastic effects_Nose - Olfactory epithelium, degeneration): 50 mg/kg-day
LOEL (F, Nonneoplastic effects_Nose - Olfactory epithelium, hyperplasia): 50 mg/kg-day
NOEL (F, Nonneoplastic effects_Nose - Olfactory epithelium, necrosis): 50 mg/kg-day
NOEL (F, Nonneoplastic effects_Spleen - Extramedullary hematopoiesis, decreased): 50 mg/kg-day
NOEL (F, Nonneoplastic effects_Stomach, forestomach - Epithelium, hyperplasia): 50 mg/kg-day
NOEL (F, Nonneoplastic effects_Thymus - Atrophy): 50 mg/kg-day
NOEL (F, Organ weights_Heart - Absolute): 50 mg/kg-day
NOEL (F, Organ weights_Heart - Relative): 50 mg/kg-day
LOEL (F, Organ weights_Liver - Absolute): 3.12 mg/kg-day
LOEL (F, Organ weights_Liver - Relative): 3.12 mg/kg-day
NOEL (F, Organ weights_Lung - Absolute): 50 mg/kg-day
NOEL (F, Organ weights_Lung - Relative): 50 mg/kg-day
LOEL (F, Organ weights_R. adrenal gland - Absolute): 12.5 mg/kg-day
LOEL (F, Organ weights_R. adrenal gland - Relative): 50 mg/kg-day
NOEL (F, Organ weights_R. kidney - Absolute): 50 mg/kg-day
NOEL (F, Organ weights_R. kidney - Relative): 50 mg/kg-day
NOEL (F, Organ weights_Spleen - Absolute): 50 mg/kg-day
NOEL (F, Organ weights_Spleen - Relative): 50 mg/kg-day
NOEL (F, Organ weights_Thymus - Absolute): 50 mg/kg-day
NOEL (F, Organ weights_Thymus - Relative): 50 mg/kg-day
NOEL (F, Reproductive toxicity_Altered estrous cyclicity): 50 mg/kg-day
NOEL (F, Survival rates): 50 mg/kg-day
NOEL (F, body weight): 50 mg/kg-day
NOEL (M, Clinical chemistry_Alanine aminotransferase): 10 mg/kg-day
NOEL (M, Clinical chemistry_Albumin): 10 mg/kg-day
LOEL (M, Clinical chemistry_Albumin/globulin ratio): 10 mg/kg-day
NOEL (M, Clinical chemistry_Alkaline phosphatase): 10 mg/kg-day
NOEL (M, Clinical chemistry_Aspartate aminotransferase): 10 mg/kg-day
LOEL (M, Clinical chemistry_Cholesterol): 1.25 mg/kg-day
NOEL (M, Clinical chemistry_Direct bilirubin): 10 mg/kg-day
LOEL (M, Clinical chemistry_Free thyroxine): 0.625 mg/kg-day
LOEL (M, Clinical chemistry_Globulin): 10 mg/kg-day
NOEL (M, Clinical chemistry_Sorbitol dehydrogenase): 10 mg/kg-day
NOEL (M, Clinical chemistry_Testosterone): 10 mg/kg-day
NOEL (M, Clinical chemistry_Thyroid stimulating hormone): 10 mg/kg-day
NOEL (M, Clinical chemistry_Total bile acids): 10 mg/kg-day
NOEL (M, Clinical chemistry_Total bilirubin): 10 mg/kg-day
NOEL (M, Clinical chemistry_Total protein): 10 mg/kg-day
LOEL (M, Clinical chemistry_Total thyroxine): 0.625 mg/kg-day
LOEL (M, Clinical chemistry_Total triiodothyronine): 0.625 mg/kg-day
LOEL (M, Clinical chemistry_Triglycerides): 2.5 mg/kg-day
LOEL (M, Gene expression_Acox1): 5 mg/kg-day
LOEL (M, Gene expression_Acyl-CoA oxidase): 5 mg/kg-day
LOEL (M, Gene expression_Cyp2b1): 1.25 mg/kg-day
LOEL (M, Gene expression_Cyp2b2): 0.625 mg/kg-day
LOEL (M, Gene expression_Cyp4a1): 1.25 mg/kg-day
NOEL (M, Hematology_Erythrocytes): 10 mg/kg-day
NOEL (M, Hematology_Hematocrit): 10 mg/kg-day
NOEL (M, Hematology_Hemoglobin): 10 mg/kg-day
NOEL (M, Hematology_Leukocytes): 10 mg/kg-day
LOEL (M, Hematology_Reticulocytes): 1.25 mg/kg-day
NOEL (M, Hematology_S. neutrophils): 10 mg/kg-day
NOEL (M, Nonneoplastic effects_Bone marrow - Hypocellularity): 10 mg/kg-day
NOEL (M, Nonneoplastic effects_Kidney - Papilla, necrosis): 10 mg/kg-day
NOEL (M, Nonneoplastic effects_Liver - Hepatocyte, cytoplasmic alteration): 10 mg/kg-day
LOEL (M, Nonneoplastic effects_Liver - Hepatocyte, hypertrophy): 2.5 mg/kg-day
NOEL (M, Nonneoplastic effects_Liver - Hepatocyte, vacuolization cytoplasmic): 10 mg/kg-day
NOEL (M, Nonneoplastic effects_Liver - Necrosis): 10 mg/kg-day
NOEL (M, Nonneoplastic effects_Nose - Olfactory epithelium, degeneration): 10 mg/kg-day
NOEL (M, Nonneoplastic effects_Nose - Olfactory epithelium, hyperplasia): 10 mg/kg-day
NOEL (M, Nonneoplastic effects_Nose - Olfactory epithelium, inflammation, suppurative): 10 mg/kg-day
NOEL (M, Nonneoplastic effects_Nose - Olfactory epithelium, necrosis): 10 mg/kg-day
NOEL (M, Nonneoplastic effects_Spleen - Extramedullary hematopoiesis, decreased): 10 mg/kg-day
NOEL (M, Nonneoplastic effects_Stomach, forestomach - Epithelium, hyperplasia): 10 mg/kg-day
NOEL (M, Nonneoplastic effects_Thymus - Atrophy): 10 mg/kg-day
NOEL (M, Organ weights_Heart - Absolute): 10 mg/kg-day
NOEL (M, Organ weights_Heart - Relative): 10 mg/kg-day
LOEL (M, Organ weights_Liver - Absolute): 1.25 mg/kg-day
LOEL (M, Organ weights_Liver - Relative): 1.25 mg/kg-day
NOEL (M, Organ weights_Lung - Absolute): 10 mg/kg-day
NOEL (M, Organ weights_Lung - Relative): 10 mg/kg-day
LOEL (M, Organ weights_R. adrenal gland - Absolute): 5 mg/kg-day
LOEL (M, Organ weights_R. adrenal gland - Relative): 2.5 mg/kg-day
NOEL (M, Organ weights_R. kidney - Absolute): 10 mg/kg-day
LOEL (M, Organ weights_R. kidney - Relative): 10 mg/kg-day
NOEL (M, Organ weights_Spleen - Absolute): 10 mg/kg-day
NOEL (M, Organ weights_Spleen - Relative): 10 mg/kg-day
NOEL (M, Organ weights_Thymus - Absolute): 10 mg/kg-day
NOEL (M, Organ weights_Thymus - Relative): 10 mg/kg-day
NOEL (M, Reproductive toxicity_Altered sperm parameters): 10 mg/kg-day
NOEL (M, Survival rates): 10 mg/kg-day
NOEL (M, body weight): 10 mg/kg-day
